Experimental findings from patent publication US7927829B2, “Method for in vitro phosphorylation of trap of Staphylococcus aureus and a method for screening the inhibitor of the trap phosphorylation” (priority 2007, dated 2011) are described below.

The assay concerns the target TRAP protein (Staphylococcus aureus, UniProt Q6GFM2). Type of assay: biochemical. On the set-up: 6xHis (C); made in house; host or cells: Escherichia coli. Particulars: for in vitro phosphorylation of TRAP protein by using metal ions: 20 μM or 200 μM metal ions, 37° C. 30 minutes, FIG. 2; for metal ion concentration above which TRAP protein is maximally phosphorylated: various ion concentrations, other conditions as Example 3, FIG. 3; for TRAP phosphorylation induced by oxidative and reductive agents: same procedure as Example 3, FIG. 5. As to the method:
The TRAP protein obtained in Example 2 was prepared with each tube according to following compositions of Table 2.
The protein sample prepared above was reacted at 37° C. for 30 minutes, then mixed with 2× loading dye 10 l (BioRad), and analyzed by performing SDS-PAGE at 150 V for an hour. Afterward, the resulting gel was dried and exposed onto an X-ray film to measure a degree of phosphorylation. The result is illustrated in FIG. 2. In the upper part of FIG. 2, 20 μM metal ions, Mg, Zn, Cu, Fe, Mn, Ni, Co are used in Lane 1 through Lane 7, respectively. In the lower part of FIG. 2, 200 μM metal ions, Mg, Cu, Zn, Ni, Co, Ca are used in Lane 1 through Lane 7, respectively.
Generally, a protein kinase binds with ATP, hydrolyzes ATP into ADP and attaches a resulting phosphate onto a specific amino acid of the protein to phosphorylate. In this process, Mg^2+ ions play a role of a subsidiary enzyme to stabilize the kinase binding with phosphates of ATP. […] The present inventors have attempted to elucidate why the TRAP protein utilizes the transition metal ions. […] Various oxidative and reductive agents were used to induce a phosphorylation in this Example.
In order to measure the TRAP phosphorylation, a quantitative analysis was performed by using FeSO4, ZnCl2 and CuCl2, in this Example. FeSO4, ZnCl2 and CuCl2, were added to each reaction at various ion concentrations and other conditions of the phosphorylation are the same as that of Example 3. The result is illustrated in FIG. 3.

TRAP protein, sequence (Q6GFM2 whole entry): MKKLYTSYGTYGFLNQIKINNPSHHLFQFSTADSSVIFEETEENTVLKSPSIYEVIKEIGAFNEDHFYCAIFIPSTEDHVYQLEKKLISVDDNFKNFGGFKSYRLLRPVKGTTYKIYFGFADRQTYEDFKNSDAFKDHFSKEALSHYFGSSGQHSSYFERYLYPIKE

With `[Cl][Cu][Cl]` [CuCl2], the “in vitro phosphorylation of TRAP protein by using metal ions” value (from here on “in vitro phosphorylation of TRAP protein”) is listed as “in vitro phosphorylated” and the “metal ion concentration above which TRAP protein is maximally phosphorylated” value was over 20 µM.

`O=S(=O)([O-])[O-].[Fe+2]` [FeSO4]: the “in vitro phosphorylation of TRAP protein” value was “in vitro phosphorylated” and the “metal ion concentration above which TRAP protein is maximally phosphorylated” value was over 2 µM.

For `OO` [H2O2, reference compound], the “TRAP phosphorylation induced by oxidative and reductive agents” value is “induced”.

With `[Cl-].[Cl-].[Mg+2]` [Mg^2+, MgCl2], the “in vitro phosphorylation of TRAP protein” value is listed as “not phosphorylated”.

Consider `[Cl-].[Cl-].[Zn+2]` [ZnCl2], for which the “in vitro phosphorylation of TRAP protein” value is “in vitro phosphorylated” and the “metal ion concentration above which TRAP protein is maximally phosphorylated” value was over 100 µM.

Consider `O=C1O[C@H]([C@@H](O)CO)C(O)=C1O` [ascorbic acid, reference compound], for which the “TRAP phosphorylation induced by oxidative and reductive agents” value is given as “not”. The “TRAP phosphorylation inhibited by a reducing agent” value (summary statement) is recorded as “inhibited”.
